Earlier results as cited in patent publication US20160165928A1, “METHODS OF REDUCING METHANE EMISSION DERIVED FROM RUMINAL FERMENTATION WHILE SIMULTANEOUSLY REDUCING RISK OF NITRATE INTOXICATION” (Grasp Indústria e Comércio Ltda., priority 2011, published 2016).

Legend:
[1] = test system: methane produced by rumen fermentation; conditions: in vivo
[2] = test system: ruminal accumulation of nitrite; conditions: in vivo

Compound	methane emission in ruminants [1]	ruminal accumulation of nitrite [2]	further results
O=[N+]([O-])[O-].O=[N+]([O-])[O-].[Ca+2] [calcium nitrate]	reduced methane emission	–	–
O=S(=O)([O-])[O-].[Cu+2] [copper sulfate]	–	reduction of ruminal accumulation of nitrite	intoxication risks [2]: minimization of intoxication risks
O=S(=O)([O-])[O-].[Mg+2] [magnesium sulfate]	–	reduction of ruminal accumulation of nitrite	–
O=[N+]([O-])[O-].[K+] [potassium nitrate]	reduced methane emission	–	–
O=[N+]([O-])[O-].[Na+] [sodium nitrate]	reduced methane emission	–	–
O=S(=O)([O-])[O-].[Na+].[Na+] [sodium sulfate]	–	reduction of ruminal accumulation of nitrite	–
[Na+].[Na+].[O]=[W](=[O])([O-])[O-] [sodium tungstate]	–	–	inhibition of nitrate reductase (nitrate reductase): inhibit nitrate reductase
